pIC50: −log10 of the molar value.
Molecular target: T1, human full length HSD11β1 (Homo sapiens, UniProt P28845)
T1 construct: transient expression of human full length HSD11β1 expression vector; host or cells: CHO cells, transient transfection
Assay: In Vitro HSD11β1 Inhibition Assay
Format: cell-based
Settings: CHO cells transiently expressing human HSD11β1; 200 nM cortisone+500 uM NADPH overnight; cortisone to cortisol by LC/MS-MS; read-out: 11βHSD1 (IC50)
Method: In Vitro HSD11β1 Inhibition Assay:
CHO cells were maintained in Dulbecco's modified Eagle's medium/nutrient mixture F-12 containing 5% fetal bovine serum (v/v) and 2 mM glutamine. Cells were cultured at 37° C. with 5% CO2. For transient expression of human full length HSD11β1 expression vector (OriGene Technologies), cells were seeded at a density of 2×10^5 cells/well in a 6-well plate. Transfection was done using Turbofectin8 reagent (OriGene Technologies), according to the protocol provided with the reagent. After 24 hours post-transfection, cells were trypsinized and pooled together before they were re-seeding to 96-well plate at a density of 40000 cells/well. 24 hours after re-seeding, cells were incubated with 200 nM cortisone+500 uM NADPH (or along with small molecule inhibitors) overnight. The enzymatic activity or inhibition of enzyme activity was measured by estimating the conversion of cortisone to cortisol by LC/MS-MS method. The IC50 in nM was calculated from a 8 point log scale of concentration versus inhibition.

T1 sequence (P28845 whole entry): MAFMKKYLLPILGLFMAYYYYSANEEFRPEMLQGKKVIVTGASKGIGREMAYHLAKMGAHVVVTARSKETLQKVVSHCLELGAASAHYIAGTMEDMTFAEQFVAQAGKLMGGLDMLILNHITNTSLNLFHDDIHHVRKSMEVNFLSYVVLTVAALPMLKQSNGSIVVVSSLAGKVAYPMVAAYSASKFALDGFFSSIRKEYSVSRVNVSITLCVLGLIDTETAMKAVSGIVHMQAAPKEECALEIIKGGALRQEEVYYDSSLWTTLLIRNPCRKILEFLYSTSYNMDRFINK

CC(CC(=O)N1C2CC3CC1CC(O)(C3)C2)c1c[nH]c2cccc(F)c12 (single isomer, unassigned) [Example 28, 3-(4-fluoro-1H-indol-3-yl)-1-(5-hydroxy-2-azatricyclo[3.3.1.1^3,7]dec-2-yl)butan-1-one]
pIC50: 6.60 to 6.70

COC12CC3CC(C1)N(C(=O)CC(C)c1c[nH]c4cccc(F)c14)C(C3)C2 (single isomer, unassigned) [Example 30, 3-(4-fluoro-1H-indol-3-yl)-1-(5-methoxy-2-azatricyclo[3.3.1.1^3,7]dec-2-yl)butan-1-one]
pIC50: 6.70 to 6.82

COC12CC3CC(C1)N(C(=O)CC(C)c1c[nH]c4cccc(F)c14)C(C3)C2 (single isomer, unassigned) [Example 31, 3-(4-fluoro-1H-indol-3-yl)-1-(5-methoxy-2-azatricyclo[3.3.1.1^3,7]dec-2-yl)butan-1-one]
pIC50: > 7.00

CC(CC(=O)N1C2CC3CC1CC(O)(C3)C2)c1c[nH]c2cccc(Cl)c12 (single isomer, unassigned) [Example 36, 3-(4-chloro-1H-indol-3-yl)-1-(5-hydroxy-2-azatricyclo[3.3.1.1^3,7]dec-2-yl)butan-1-one]
pIC50: 6.60 to 6.70

CC(CC(=O)N1C2CC3CC1CC(O)(C3)C2)c1c[nH]c2cccc(Cl)c12 (single isomer, unassigned) [Example 37, 3-(4-chloro-1H-indol-3-yl)-1-(5-hydroxy-2-azatricyclo[3.3.1.1^3,7]dec-2-yl)butan-1-one]
pIC50: > 7.00

Cc1cccc2[nH]cc(C(C)CC(=O)N3C4CC5CC3CC(O)(C5)C4)c12 (single isomer, unassigned) [Example 49, 1-(5-hydroxy-2-azatricyclo[3.3.1.1^3,7]dec-2-yl)-3-(4-methyl-1H-indol-3-yl)butan-1-one]
pIC50: > 7.00

CC(CC(=O)N1C2CC3CC1CC(C(=O)O)(C3)C2)c1c[nH]c2cccc(C3CC3)c12 (single isomer, unassigned) [Example 53, 2-[3-(4-cyclopropyl-1H-indol-3-yl)butanoyl]-2-azatricyclo[3.3.1.1^3,7]decane-5-carboxylic acid]
pIC50: < 6.60

O=C(CC(c1ccc(F)cc1)c1c[nH]c2ccccc12)N1C2CC3CC1CC(O)(C3)C2 (centres unmarked) [Compound 73, 3-(4-fluorophenyl)-1-(5-hydroxy-2-azatricyclo[3.3.1.1^3,7]dec-2-yl)-3-(1H-indol-3-yl)propan-1-one]
pIC50: > 7.00

Cc1cccc2[nH]cc(C(CC(=O)N3C4CC5CC3CC(O)(C5)C4)C(C)C)c12 (centres unmarked) [Compound 74, 1-(5-hydroxy-2-azatricyclo[3.3.1.1^7]dec-2-yl)-4-methyl-3-(4-methyl-1H-indol-3-yl)pentan-1-one]
pIC50: < 6.60

CC(CC(=O)N1C2CC3CC1CC(O)(C3)C2)c1c[nH]c2ccc(F)cc12 (centres unmarked) [Compound 75, 3-(5-fluoro-1H-indol-3-yl)-1-(5-hydroxy-2-azatricyclo[3.3.1.1^3,7]dec-2-yl)butan-1-one]
pIC50: 6.60 to 6.70

CC(CC(=O)N1C2CC3CC1CC(c1nnn[nH]1)(C3)C2)c1c[nH]c2cccc(Cl)c12 (centres unmarked) [Compound 76, 3-(4-chloro-1H-indol-3-yl)-1-[5-(1H-tetrazol-5-yl)-2-azatricyclo[3.3.1.1^3,7]dec-2-yl]butan-1-one]
pIC50: < 6.60

Cc1cccc2[nH]cc(C(C)CC(=O)N3C4CC5CC3CC(c3nnn[nH]3)(C5)C4)c12 (centres unmarked) [Compound 77, 3-(4-methyl-1H-indol-3-yl)-1-[5-(1H-tetrazol-5-yl)-2-azatricyclo[3.3.1.1^3,7]dec-2-yl]butan-1-one]
pIC50: < 6.60

Cc1cccc2c(C(C)CC(=O)N3C4CC5CC3CC(O)(C5)C4)c[nH]c12 (centres unmarked) [Compound 78, 1-(5-hydroxy-2-azatricyclo[3.3.1.1^3,7]dec-2-yl)-3-(7-methyl-1H-indol-3-yl)butan-1-one]
pIC50: < 6.60

CC(CC(=O)N1C2CC3CC1CC(O)(C3)C2)c1c[nH]c2cc(F)ccc12 (centres unmarked) [Compound 79, 3-(6-fluoro-1H-indol-3-yl)-1-(5-hydroxy-2-azatricyclo[3.3.1.1^3,7]dec-2-yl)butan-1-one]
pIC50: 6.82 to 7.00

Source: US9303016B2, “Derivatives of aza adamantane and uses thereof” (CONNEXIOS LIFE SCIENCES PVT. LTD., priority 2011, dated 2016)
